Assay results reported in patent US20260083865A1, “PROSTATE SPECIFIC MEMBRANE ANTIGEN (PSMA) LIGANDS AND USE THEREOF” (priority 2022, published 2026).
Numbered stars: 1 amine (or outer) side, 2 acyl side, 3 side chain; on linkers, the order of the positions; unused ones are H or OH. Bridge positions count the residues as written; N and C are the ends. Square brackets hold non-standard residues; d marks the D form. Peptide text beside a SMILES is read from it. * marks the point of attachment. NH(CH2)5NHDOTA = O=C(O)CN1CCN(CC(=O)O)CCN(CC(=O)NCCCCCN*)CCN(CC(=O)O)CC1; DOTA = O=C(O)CN1CCN(CC(=O)O)CCN(CC(=O)*)CCN(CC(=O)O)CC1; Trp(6-Cl) = N[C@@H](Cc1c[nH]c2cc(Cl)ccc12)C(=O)O; Phe(3-CF3) = N[C@@H](Cc1cccc(C(F)(F)F)c1)C(=O)O; Pro(trans-4-F) = O=C(O)[C@@H]1C[C@@H](F)CN1; Phe(4-Cl) = N[C@@H](Cc1ccc(Cl)cc1)C(=O)O; Phe(4-F) = N[C@@H](Cc1ccc(F)cc1)C(=O)O; Arg(Me) = CNC(=N)NCCC[C@H](N)C(=O)O; Ethylenediamine = C(CN[*:2])N[*:1]; X1 = O=C(CC1CCN([*:1])CC1)[*:2]; Lys(Me) = CNCCCC[C@H](N)C(=O)O; Tle = CC(C)(C)[C@H](N)C(=O)O; Aib = CC(C)(N)C(=O)O

How the values were obtained:
[1] = target: T1, PSMA-expressing C4-2 cells (Homo sapiens, UniProt Q04609); assay: FACS binding assay (competition with 50 nM PSM-0183); settings: pIC50 category of FACS binding, C4-2 cells; read-out: pIC50 [C4-2] CAT (converted)
T1 construct: PSMA-expressing C4-2 cells (ATCC, Cat. No. CRL-3314) were cultured in RPMI-1640; host or cells: C4-2 cells
T1 sequence (Q04609 whole entry): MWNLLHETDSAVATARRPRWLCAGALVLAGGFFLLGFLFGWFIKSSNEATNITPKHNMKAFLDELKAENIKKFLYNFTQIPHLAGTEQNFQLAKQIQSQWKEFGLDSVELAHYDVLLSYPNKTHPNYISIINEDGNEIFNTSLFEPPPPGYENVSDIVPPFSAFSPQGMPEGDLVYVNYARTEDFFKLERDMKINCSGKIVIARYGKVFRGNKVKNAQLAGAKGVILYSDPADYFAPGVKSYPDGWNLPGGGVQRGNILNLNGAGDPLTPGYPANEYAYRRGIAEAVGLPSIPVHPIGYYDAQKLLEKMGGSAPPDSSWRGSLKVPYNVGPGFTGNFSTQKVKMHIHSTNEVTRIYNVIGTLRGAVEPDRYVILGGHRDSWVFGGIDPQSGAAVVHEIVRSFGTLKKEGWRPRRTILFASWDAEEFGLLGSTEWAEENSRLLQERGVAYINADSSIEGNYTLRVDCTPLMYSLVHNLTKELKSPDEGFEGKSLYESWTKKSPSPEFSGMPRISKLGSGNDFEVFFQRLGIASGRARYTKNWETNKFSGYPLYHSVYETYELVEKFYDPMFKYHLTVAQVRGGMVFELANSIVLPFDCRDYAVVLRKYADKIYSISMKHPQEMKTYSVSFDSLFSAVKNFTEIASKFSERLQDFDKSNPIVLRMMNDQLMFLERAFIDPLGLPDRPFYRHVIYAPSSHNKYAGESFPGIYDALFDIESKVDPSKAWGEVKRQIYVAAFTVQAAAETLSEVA
Outline: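 C4-2 cells were incubated 1 h at 4 °C with 50 nM AF488-labelled peptide PSM-0183 plus increasing test compound concentrations, then washed twice in ice-cold buffer. Median fluorescence in the AF488 channel was read by flow cytometry. IC50/pIC50 was derived by 4PL fitting of MFI versus concentration.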

[2] = target: T2, Fc-fusion protein of human PSMA (hPSMA-Fc) (Homo sapiens, UniProt Q04609); assay: Surface plasmon resonance assay (Biacore T200, single cycle kinetic); assay type: binding; settings: pKD category for PSMA SPR activity assay, hPSMA-Fc, 25° C.; read-out: pKD CAT (converted)
T2 construct: purchased Acro Biosystems PSA-H5264
T2 sequence (Q04609 44-750 limits assumed): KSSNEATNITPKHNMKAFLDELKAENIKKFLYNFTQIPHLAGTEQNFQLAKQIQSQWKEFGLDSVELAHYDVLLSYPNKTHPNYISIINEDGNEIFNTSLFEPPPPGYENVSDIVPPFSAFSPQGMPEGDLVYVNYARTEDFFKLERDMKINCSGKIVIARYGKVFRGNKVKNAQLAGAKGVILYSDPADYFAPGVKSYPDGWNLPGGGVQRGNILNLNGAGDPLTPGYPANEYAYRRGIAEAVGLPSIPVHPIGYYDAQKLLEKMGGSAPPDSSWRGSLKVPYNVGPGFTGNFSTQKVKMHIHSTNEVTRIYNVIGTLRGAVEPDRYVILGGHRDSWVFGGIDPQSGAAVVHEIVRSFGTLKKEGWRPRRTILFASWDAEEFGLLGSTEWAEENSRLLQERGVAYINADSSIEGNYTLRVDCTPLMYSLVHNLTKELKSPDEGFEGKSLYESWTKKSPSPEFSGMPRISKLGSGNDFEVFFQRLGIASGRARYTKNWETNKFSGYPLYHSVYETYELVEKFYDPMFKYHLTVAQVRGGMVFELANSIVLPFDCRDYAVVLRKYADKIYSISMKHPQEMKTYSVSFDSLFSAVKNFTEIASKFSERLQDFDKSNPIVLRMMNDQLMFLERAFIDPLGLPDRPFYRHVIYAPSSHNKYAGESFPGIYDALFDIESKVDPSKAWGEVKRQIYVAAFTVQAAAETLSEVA
Outline: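 hPSMA-Fc was captured (~1000 RU) on an Fc-binding-peptide CM5 chip, and compounds were run in single cycle kinetic mode at 25° C in HBST with 0.1% DMSO. Double-blank-corrected sensorgrams were fitted to a 1:1 Langmuir model to give KD, reported as pKD.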

SMILES	IC50 [1] [nM]	Kd [2] [nM]
CNCCCC[C@@H]1NC(=O)[C@@H](NC(=O)[C@H](Cc2c[nH]c3cc(Cl)ccc23)NC(=O)C(C)(C)NC(=O)[C@@H](NC(=O)CC2CCN(C(=O)CN3CCN(CC(=O)O)CCN(CC(=O)O)CCN(CC(=O)O)CC3)CC2)[C@@H](C)O)CSSC[C@@H](C(=O)N[C@H](C(N)=O)C(C)(C)C)NC(=O)[C@H](CC(N)=O)NC(=O)C(C)(C)NC(=O)[C@H](CCCNC(=N)NC)NC1=O [PSM-0390, DOTA-Cmp-Tle-Aib-6Clw-[Cys-Lys(Me)-Arg(Me)-Aib-Asn-Cys]-Tle-NH2] ({DOTA}-[X1]T[Aib][Trp(6-Cl)]C[Lys(Me)][Arg(Me)][Aib]NC[Tle]-NH2; disulfide 5-10)	< 200	< 12.6
CC(=O)N[C@H](C(=O)NC(C)(C)C(=O)N[C@@H](Cc1ccccc1)C(=O)N[C@H]1CSSC[C@@H](C(=O)N[C@H](C(=O)N[C@H](C(=O)NCCCCCNC(=O)CN2CCN(CC(=O)O)CCN(CC(=O)O)CCN(CC(=O)O)CC2)[C@@H](C)O)C(C)(C)C)NC(=O)[C@H](CC(N)=O)NC(=O)C(C)(C)NC(=O)[C@H](CCCNC(=N)N)NC(=O)[C@H](CCCCN)NC1=O)[C@@H](C)O [PSM-0391, Ac-Thr-Aib-Phe-[Cys-Lys-Arg-Aib-Asn-Cys]-Tle-Thr-Ape-DOTA] (Ac-T[Aib]FCKR[Aib]NC[Tle]T-{NH(CH2)5NHDOTA}; disulfide 4-9)	< 200	< 12.6
CC(=O)N[C@H](C(=O)NC(C)(C)C(=O)N[C@@H](Cc1ccccc1)C(=O)N[C@H]1CSSC[C@@H](C(=O)N[C@H](C(=O)N[C@H](C(=O)N[C@@H](CC(=O)O)C(N)=O)[C@@H](C)O)C(C)(C)C)NC(=O)[C@H](CC(N)=O)NC(=O)[C@@H]2C[C@@H](F)CN2C(=O)[C@H](CCCNC(=N)N)NC(=O)[C@H](CCCCN)NC1=O)[C@@H](C)O [PSM-0392, Ac-Thr-Aib-Phe-[Cys-Lys-Arg-4Tfp-Asn-Cys]-Tle-Thr-Asp-NH2] (Ac-T[Aib]FCKR[Pro(trans-4-F)]NC[Tle]TD-NH2; disulfide 4-9)	< 200	< 12.6
CC(=O)N[C@H](C(=O)NC(C)(C)C(=O)N[C@@H](Cc1ccc(Cl)cc1)C(=O)N[C@H]1CSSC[C@@H](C(=O)N[C@H](C(=O)NCCN)C(C)(C)C)NC(=O)[C@H](CC(N)=O)NC(=O)C(C)(C)NC(=O)[C@H](CCCNC(=N)N)NC(=O)[C@H](CCCCN)NC1=O)[C@@H](C)O [PSM-0393, Ac-Thr-Aib-Pcf-[Cys-Lys-Arg-Aib-Asn-Cys]-Tle-en] (Ac-T[Aib][Phe(4-Cl)]CKR[Aib]NC[Tle]-Ethylenediamine; disulfide 4-9)	< 200	< 12.6
CC(=O)N[C@H](C(=O)NC(C)(C)C(=O)N[C@@H](Cc1ccccc1)C(=O)N[C@H]1CSSC[C@@H](C(=O)NC(C)(C)C(=O)N[C@H](C(N)=O)[C@@H](C)O)NC(=O)[C@H](CC(N)=O)NC(=O)C(C)(C)NC(=O)[C@H](CCCNC(=N)N)NC(=O)[C@H](CCCCN)NC1=O)[C@@H](C)O [PSM-0394, Ac-Thr-Aib-Phe-[Cys-Lys-Arg-Aib-Asn-Cys]-Aib-Thr-NH2] (Ac-T[Aib]FCKR[Aib]NC[Aib]T-NH2; disulfide 4-9)	200 to 1260	12.6 to 126
CNCCCC[C@@H]1NC(=O)[C@@H](NC(=O)[C@H](Cc2ccc(F)cc2)NC(=O)C(C)(C)NC(=O)[C@@H](NC(=O)CC2CCN(C(=O)CN3CCN(CC(=O)O)CCN(CC(=O)O)CCN(CC(=O)O)CC3)CC2)[C@@H](C)O)CSSC[C@@H](C(=O)N[C@H](C(N)=O)C(C)(C)C)NC(=O)[C@H](CC(N)=O)NC(=O)C(C)(C)NC(=O)[C@H](CCCNC(=N)NC)NC1=O [PSM-0395, DOTA-Cmp-Thr-Aib-Pff-[Cys-Lys(Me)-Arg(Me)-Aib-Asn-Cys]-Tle-NH2] ({DOTA}-[X1]T[Aib][Phe(4-F)]C[Lys(Me)][Arg(Me)][Aib]NC[Tle]-NH2; disulfide 5-10)	< 200	< 12.6
CNCCCC[C@@H]1NC(=O)[C@@H](NC(=O)[C@H](Cc2cccc(C(F)(F)F)c2)NC(=O)C(C)(C)NC(=O)[C@@H](NC(=O)CC2CCN(C(=O)CN3CCN(CC(=O)O)CCN(CC(=O)O)CCN(CC(=O)O)CC3)CC2)[C@@H](C)O)CSSC[C@@H](C(=O)N[C@H](C(N)=O)C(C)(C)C)NC(=O)[C@H](CC(N)=O)NC(=O)C(C)(C)NC(=O)[C@H](CCCNC(=N)NC)NC1=O [PSM-0396, DOTA-Cmp-Thr-Aib-Mtf-[Cys-Lys(Me)-Arg(Me)-Aib-Asn-Cys]-Tle-NH2] ({DOTA}-[X1]T[Aib][Phe(3-CF3)]C[Lys(Me)][Arg(Me)][Aib]NC[Tle]-NH2; disulfide 5-10)	< 200	< 12.6
CC(=O)N[C@H](C(=O)NC(C)(C)C(=O)N[C@@H](Cc1ccccc1)C(=O)N[C@H]1CSSC[C@@H](C(=O)N[C@H](C(=O)N[C@H](C(=O)N[C@@H](CC(=O)O)C(N)=O)[C@@H](C)O)C(C)(C)C)NC(=O)[C@H](CC(N)=O)NC(=O)[C@H](CCCCNC(=O)CN2CCN(CC(=O)O)CCN(CC(=O)O)CCN(CC(=O)O)CC2)NC(=O)[C@H](CCCNC(=N)N)NC(=O)[C@H](CCCCN)NC1=O)[C@@H](C)O [PSM-0397, Ac-Thr-Aib-Phe-[Cys-Lys-Arg-Lys(DOTA)-Asn-Cys]-Tle-Thr-Asp-NH2] (Ac-T[Aib]FCKRK(DOTA)NC[Tle]TD-NH2; disulfide 4-9)	< 200	12.6 to 126
